# “And” between values parts separate entries of the source, which are not always exact repeats. Identical values can stand only once.
# Assays:
# [1] = First study: sublingual pump spray in angina patients intolerant to standard 400 mcg NTG spray (intolerance and anginal pain relief); format: in vivo; conditions: single 200 mcg NTG spray dosage sublingually, Nitrolingual solution diluted fifty percent with placebo solution; 21 patients
# Protocol: The first study identifies 21 patients experiencing intolerance to a standard “Nitrolingual”® NTG 400 mcg spray dosage delivered sublingually.
# The “Nitrolingual”® solution described above was diluted fifty percent with a pharmacologically neutral solution placebo obtained from the same manufacturer, forming a combination solution. […] Each of the patients was then provided with a pump spray containing the combination solution which would limit each single spray dosage to 200 mcg NTG.
# Next, isovolumic amounts of “Nitrolingual”® Pumpspray solution and 1% Menthol solution were mixed and the combination solution was provided to patients as a pump spray.
# [2] = Second study: exercise stress tests in patients with reproducible exertional angina; format: in vivo
# Source text: The second study pertained to five patients that experienced reproducible exertional angina. The study comprised administering exercise stress tests for each patient on three consecutive days. […]
# For each patient, the stress test was stopped with the onset of angina. The objective evidence of ischemia was indicated by the degree of S-T segment depression and presence of segmental wall abnormalities documented by echocardiographic study performed immediately after the exercise stress test.
# All tests monitored angina with exercise, exercise tolerance, and the degree of S-T segment depression on the ECG, when: 1) no medication was administered (Table 1); […]); and, 3) a solution containing isovolumic amounts of NTG and Menthol […]
smiles,measurement,setting,value
"O=[N+]([O-])OCC(CO[N+](=O)[O-])O[N+](=O)[O-] [NTG, Nitroglycerin]",patients that did not experience intolerance,[1],90%
same,patients that received satisfactory relief from anginal pain within two minutes,[1],19%
same,Heart Rate at Peak,"[2]; 400 mg NTG administered prior to exercise, one line per patient (1-5)",120 and 128 and 140 and 112 and 130
same,Duration of Exercise,"[2]; 400 mg NTG administered prior to exercise, test stopped at onset of angina, one line per patient (1-5)",5 min and 6 min and 6.5 min and 4.5 min and 7.5 min
same,side effects observed,"[2]; 400 mcg NTG by itself or 200 mcg NTG in combination with Menthol, before exercise",No side effects were observed
